In brackets after ≈: the same amount, converted by molar mass.
test system: Streptococcus pneumoniae; assay: Minimum inhibitory concentration (MIC) by agar dilution; format: cell-based; details: in vitro, agar dilution (NCCLS 1993), Streptococcus pneumoniae strain SPNE 9912; read-out: Antibacterial Activity Minimum Inhibitory Concentration SPNE 9912
Text: The oxazolidinone antibacterial agents of this invention have useful activity against a variety of organisms. The in vitro activity of compounds of this invention can be assessed by standard testing procedures such as the determination of minimum inhibitory concentration (MIC) by agar dilution as described in “Approved Standard. Methods for Dilution Antimicrobial Susceptibility Tests for Bacteria That Grow Aerobically”, 3rd. ed., published 1993 by the National Committee for Clinical Laboratory Standards, Villanova, Pa. USA.

MIC | SMILES
1 µg/mL (≈ 2.88 µM) | COC(=O)N1CCc2cc(N3C[C@H](CNC(C)=O)OC3=O)ccc2C1 [Example 1, (−)-Methyl 6-[(5S)-5-[(acetylamino)methyl]-2-oxo-3-oxazolidinyl]-3,4-dihydro-2(1H)-isoquinolinecarboxylate]
1 µg/mL (≈ 3.15 µM) | CC(=O)NC[C@H]1CN(c2ccc3c(c2)CCN(C=O)C3)C(=O)O1 [Example 2, (−)-N-[[(5S)-3-[2-Formyl-1,2,3,4-tetrahydro-6-isoquinolinyl]-2-oxo-5-oxazolidinyl]methyl]acetamide]
1 µg/mL (≈ 2.57 µM) | CC(=O)NC[C@H]1CN(c2ccc3c(c2)CCN(C(=O)COC(C)=O)C3)C(=O)O1 [Example 3, (−)-N-[[(5S)-3-[2-[(Acetyloxy)acetyl]-1,2,3,4-tetrahydro-6-isoquinolinyl]-2-oxo-5-oxazolidinyl]methyl]acetamide]
1 µg/mL (≈ 2.88 µM) | CC(=O)NC[C@H]1CN(c2ccc3c(c2)CCN(C(=O)CO)C3)C(=O)O1 [Example 4, (−)-N-[[(5S)-3-[2-[(Hydroxy)acetyl]-1,2,3,4-tetrahydro-6-isoquinolinyl]-2-oxo-5-oxazolidinyl]methyl]acetamide]
< 0.5 µg/mL | COC(=O)N1CCc2cc(N3C[C@H](CNC(C)=S)OC3=O)ccc2C1 [Example 5, (+)-Methyl 6-[(5S)-5-[(ethanethioylamino)methyl]-2-oxo-3-oxazolidinyl]-3,4-dihydro-2(1H)-isoquinolinecarboxylate]
< 0.5 µg/mL | CC(=S)NC[C@H]1CN(c2ccc3c(c2)CCN(C=O)C3)C(=O)O1 [Example 6, (+)-N-[[(5S)-3-[2-Formyl-1,2,3,4-tetrahydro-6-isoquinolinyl]-2-oxo-5-oxazolidinyl]methyl]ethanethioamide]
< 0.5 µg/mL | CC(=S)NC[C@H]1CN(c2ccc3c(c2)CCN(C(=O)CO)C3)C(=O)O1 [Example 7, (+)-N-[[(5S)-3-[2-[(Hydroxy)acetyl]-1,2,3,4-tetrahydro-6-isoquinolinyl]-2-oxo-5-oxazolidinyl]methyl]ethanethioamide]
4 µg/mL (≈ 13.8 µM) | CC(=O)NC[C@H]1CN(c2ccc3c(c2)CCOC3)C(=O)O1 [Example 8, (−)-N-[[(5S)-3-(3,4-Dihydro-1H-2-benzopyran-6-yl)-2-oxo-5-oxazolidinyl]methyl]acetamide]
1 µg/mL (≈ 3.26 µM) | CC(=S)NC[C@H]1CN(c2ccc3c(c2)CCOC3)C(=O)O1 [Example 9, (+)-N-[[(5S)-3-(3,4-Dihydro-1H-2-benzopyran-6-yl)-2-oxo-5-oxazolidinyl]methyl]ethanethioamide]
0.5 µg/mL (≈ 1.63 µM) | CC(=O)NC[C@H]1CN(c2ccc3c(c2)CSCC3)C(=O)O1 [Example 14, (−)-N-[[(5S)-3-(3,4-Dihydro-1H-2-benzothiopyran-7-yl)-2-oxo-5-oxazolidinyl]methyl]acetamide]
0.125 µg/mL (≈ 0.388 µM) | CC(=S)NC[C@H]1CN(c2ccc3c(c2)CSCC3)C(=O)O1 [Example 15, (+)-N-[[(5S)-3-(3,4-Dihydro-1H-2-benzothiopyran-7-yl)-2-oxo-5-oxazolidinyl]methyl]ethanethioamide]
1 µg/mL (≈ 2.82 µM) | CC(=S)NC[C@H]1CN(c2ccc3c(c2)CS(=O)(=O)CC3)C(=O)O1 [Example 16, (+)-N-[[(5S)-3-(3,4-Dihydro-2,2-dioxido-1H-2-benzothiopyran-7-yl)-2-oxo-5-oxazolidinyl]methyl]ethanethioamide]
2 µg/mL (≈ 6.2 µM) | CC(=O)NC[C@H]1CN(c2ccc3c(c2)C[S+]([O-])CC3)C(=O)O1 (stereo partly drawn) [Example 17, N-[[(5S)-3-(3,4-Dihydro-2-oxido-1H-2-benzothiopyran-7-yl)-2-oxo-5-oxazolidinyl]methyl]acetamide]
1 µg/mL (≈ 3 µM) | CC(=S)NC[C@H]1CN(c2ccc3c(c2)CN(C=O)CC3)C(=O)O1 [Example 18, (+)-N-[[(5S)-3-[2-Formyl-1,2,3,4-tetrahydro-7-isoquinolinyl]-2-oxo-5-oxazolidinyl]methyl]ethanethioamide]
2 µg/mL (≈ 5.5 µM) | CC(=S)NC[C@H]1CN(c2ccc3c(c2)CN(C(=O)CO)CC3)C(=O)O1 [Example 19, (+)-N-[[(5S)-3-[2-[(Hydroxy)acetyl]-1,2,3,4-tetrahydro-7-isoquinolinyl]-2-oxo-5-oxazolidinyl]methyl]ethanethioamide]
< 0.5 µg/mL | CC(=O)NC[C@H]1CN(c2ccc3c(c2)CCCCN3C=O)C(=O)O1 [Example 20, N-{[(5S)-3-(1-Formyl-2,3,4,5-tetrahydro-1H-1-benzazepin-7-yl)-2-oxo-1,3-oxazolidin-5-yl]methyl}acetamide]
< 0.5 µg/mL | CC(=S)NC[C@H]1CN(c2ccc3c(c2)CCCCN3C=O)C(=O)O1 [Example 21, N-{[(5S)-3-(1-Formyl-2,3,4,5-tetrahydro-1H-1-benzazepin-7-yl)-2-oxo-1,3-oxazolidin-5-yl]methyl}ethanethioamide]
< 0.5 µg/mL | CC(=O)NC[C@H]1CN(c2ccc3c(c2)CCN(C(=O)OCc2ccccc2)CC3)C(=O)O1 [Example 22]
< 0.5 µg/mL | CC(=O)NC[C@H]1CN(c2ccc3c(c2)CCN(C=O)CC3)C(=O)O1 [Example 23, N-{[(5S)-3-(3-Formyl-1,2,4,5-tetrahydro-1H-3-benzazepin-7-yl)-2-oxo-1,3-oxazolidin-5-yl]methyl}acetamide]

MIC | SMILES
< 0.5 µg/mL | CC(=O)NC[C@H]1CN(c2ccc3c(c2)CCN(C(=O)CO)CC3)C(=O)O1 [Example 24, N-{[(55)-3-(3-Glycoloyl-1,2,4,5-tetrahydro-1H-3-benzazepin-7-yl)-2-oxo-1,3-oxazolidin-5-yl]methyl}acetamide]
1 µg/mL (≈ 2.9 µM) | CC(=O)NC[C@H]1CN(c2ccc3c(c2)CCN(C(C)=O)CC3)C(=O)O1 [Example 25, N-{[(5S)-3-(3-Acetyl-1,2,4,5-tetrahydro-1H-3-benzazepin-7-yl)-2-oxo-1,3-oxazolidin-5-yl]methyl}acetamide]
1 µg/mL (≈ 2.77 µM) | COC(=O)N1CCc2ccc(N3C[C@H](CNC(C)=O)OC3=O)cc2CC1 [Example 26, Methyl 7-{(5S)-5-[(acetylamino)methyl]-2-oxo-1,3-oxazolidin-3-yl}-1,2,4,5-tetrahydro-3H-3-benzazepine-3-carboxylate]
1 µg/mL (≈ 2.45 µM) | CC(=O)NC[C@H]1CN(c2ccc3c(c2)CCN(C(=O)c2ccccc2)CC3)C(=O)O1 [Example 27, N-{[(5S)-3-(3-Benzoyl-1,2,4,5-tetrahydro-1H-3-benzazepin-7-yl)-2-oxo-1,3-oxazolidin-5-yl]methyl}acetamide]
4 µg/mL (≈ 10.5 µM) | CC(=O)NC[C@H]1CN(c2ccc3c(c2)CCN(S(C)(=O)=O)CC3)C(=O)O1 [Example 28, N-({(5)-3-[3-(Methylsulfonyl)-1,2,4,5-tetrahydro-1H-3-benzazepin-7-yl]-2-oxo-1,3-oxazolidin-5-yl}methyl)acetamide]
2 µg/mL (≈ 4.72 µM) | CC(=O)NC[C@H]1CN(c2ccc3c(c2)CCN(C(=O)Oc2ccccc2)CC3)C(=O)O1 [Example 29, Phenyl 7-{(5S)-5-[(acetylamino)methyl]-2-oxo-1,3-oxazolidin-3-yl}-1,2,4,5-tetrahydro-3H-3-benzazepine-3-carboxylate]
1 µg/mL (≈ 2.37 µM) | CC(=O)NC[C@H]1CN(c2ccc3c(c2)CCN(C(=O)Cc2ccccc2)CC3)C(=O)O1 [Example 30, N-[((5S)-3-{3-(Phenyl)acetyl-1,2,4,5-tetrahydro-1H-3-benzazepin-7-yl}-2-oxo-1,3-oxazolidin-5-yl)methyl]acetamide]
1 µg/mL (≈ 1.83 µM) | CC(=O)NC[C@H]1CN(c2ccc3c(c2)CCN(C(=O)Cc2ccc(I)cc2)CC3)C(=O)O1 [Example 31, N-[((5S)-3-{3-[(4-Iodophenyl)acetyl]-1,2,4,5-tetrahydro-1H-3-benzazepin-7-yl}-2-oxo-1,3-oxazolidin-5-yl)methyl]acetamide]
2 µg/mL (≈ 4.09 µM) | CC(=O)NC[C@H]1CN(c2ccc3c(c2)CCN(C(=O)Cc2cccc(C(F)(F)F)c2)CC3)C(=O)O1 [Example 32]
2 µg/mL (≈ 4.09 µM) | CC(=O)NC[C@H]1CN(c2ccc3c(c2)CCN(C(=O)Cc2ccc(C(F)(F)F)cc2)CC3)C(=O)O1 [Example 33]
2 µg/mL (≈ 4.98 µM) | CC(=O)CCC(=O)N1CCc2ccc(N3C[C@H](CNC(C)=O)OC3=O)cc2CC1 [Example 34]
1 µg/mL (≈ 2.41 µM) | CC(=O)CCCC(=O)N1CCc2ccc(N3C[C@H](CNC(C)=O)OC3=O)cc2CC1 [Example 35, N-({(5S)-2-Oxo-3-[3-(5-oxohexanoyl)-1,2,4,5-tetrahydro-1H-3-benzazepin-7-yl]-1,3-oxazolidin-5-yl}methyl)acetamide]
< 0.5 µg/mL | CC(=O)NC[C@H]1CN(c2ccc3c(c2)CCCN(C=O)C3)C(=O)O1 [Example 36, N-{[(5S)-3-(2-Formyl-1,3,4,5-tetrahydro-1H-2-benzazepin-7-yl)-2-oxo-1,3-oxazolidin-5-yl]methyl}acetamide]
1 µg/mL (≈ 2.77 µM) | CC(=O)NC[C@H]1CN(c2ccc3c(c2)CCCN(C(=O)CO)C3)C(=O)O1 [Example 37, N-{[(5S)-3-(2-Glycoloyl-1,3,4,5-tetrahydro-1H-3-benzazepin-7-yl)-2-oxo-1,3-oxazolidin-5-yl]methyl}acetamide]
2 µg/mL (≈ 5.79 µM) | CC(=O)NC[C@H]1CN(c2ccc3c(c2)CCCN(C(C)=O)C3)C(=O)O1 [Example 38, N-{[(5S)-3-(2-Acetyl-1,3,4,5-tetrahydro-1H-2-benzazepin-7-yl)-2-oxo-1,3-oxazolidin-5-yl]methyl}acetamide]
1 µg/mL (≈ 2.37 µM) | CC(=O)NC[C@H]1CN(c2ccc3c(c2)CCCN(C(=O)Nc2ccccc2)C3)C(=O)O1 [Example 40, 7-{(5S)-5-[(Acetylamino)methyl]-2-oxo-1,3-oxazolidin-3-yl}-N-phenyl-1,3,4,5-tetrahydro-2H-2-benzazepine-2-carboxamide]
0.125 µg/mL (≈ 0.331 µM) | CC(=S)NC[C@H]1CN(c2ccc3c(c2)CCN(C(=O)CO)CC3)C(=O)O1 [Example 41, N-{[(5S)-3-(3-Glycoloyl-1,2,4,5-tetrahydro-1H-3-benzazepin-7-yl)-2-oxo-1,3-oxazolidin-5-yl]methyl}ethanethioamide]
0.5 µg/mL (≈ 1.24 µM) | CC(=O)NC[C@H]1CN(c2ccc3c(c2)CCN(c2nnc(N)s2)CC3)C(=O)O1 [Example 42, N-({(5S)-3-[3-(5-Amino-1,3,4-thiadiazol-2-yl)-1,2,4,5-tetrahydro-1H-3-benzazepin-7-yl]-2-oxo-1,3-oxazolidin-5-yl}methyl)acetamide]

Source: US6972286B2, “Oxazolidinones having a benzannulated 6- or 7-membered heterocycle” (Pharmacia and Upjohn Company, priority 2000, dated 2005)
